# What was measured:
# [1] = identification of atRAL Schiff base conjugates with MB compounds in mouse eyes; type: in vivo; details: Abca4−/−Rdh8−/− mice, 50 mg/kg oral gavage, bright light exposure 10 min; mass spectrometry versus standards
# Protocol: FIGS. 6(A-B) illustrate identification of retinal Schiff base conjugates in Abca4^−/− Rdh8^−/− mice treated with MB-005 and MB-006. Following drug administration, mice were exposed to intense light for 10 min. After a 30 min recovery under darkness, animals were sacrificed and retinoids were extracted from the eyes. (A, B) Shown in the top panels are selective ion chromatograms for MB-005-retinal conjugates (A, at m/z=572.6) and MB-006-retinal conjugates (B, at m/z=588.6). Panels on the bottom show the mass spectra of the peaks coinciding with the retention times of their authentic standards. The insets display the MS/MS fragmentation patterns of the two imines, which were identical to the corresponding standards.
# MB-005 or MB-006 (50 mg/kg) were administrated by oral gavage to Abca4^−/−Rdh8^−/− mice 24 h prior to light exposure. After exposure to fluorescent light for 10 min, animals were euthanized and their eyes were collected and homogenized in acetonitrile. After centrifugation, the supernatant was concentrated to 400 μl under vacuum. […]
# With the effects of these compounds on visual cycle function established we next sought to examine their ability to form retinal-Schiff base conjugates in vivo. […] Retinoids were extracted and analyzed by mass spectrometry. […]
# Abca4−/−Rdh8−/− mice = experiment: protection against light-induced retinal degeneration (OCT, ONL thickness); type: in vivo, mouse
# Protocol: FIGS. 7(A-B) illustrate protective effects of MB compounds against light-induced retinal degeneration in Abca4^−/−Rdh8^−/− mice. Drugs were administrated at the indicated doses to 4-6 week-old Abca4^−/−Rdh8^−/− mice (weight ˜20 g) by oral gavage. After a 24 h dark adaptation, mice were exposed to 10,000 lux light for 30 min and then returned to a dark environment for 3 days. (A) Representative OCT images of mice treated with MB compounds. A dramatic decrease in the ONL indicates advanced retinal degeneration. The black scale beside the DMSO image represents 50 μm. (B) Retinal protective effects exerted by MB compounds as quantified by average ONL thickness. Only non-scattering ONL layers were measured. For images in which the ONL layer boundary was obscured due to light scattering, the ONL length was recorded as 0 μm. Error bars represent standard deviations; n=3-5 for each group.
# Abca4^−/−Rdh8^−/− mice on a C57BL/6J background were generated as previously described. Male and female WT mice with C57BL/6J backgrounds were obtained from The Jackson Laboratory. Abca4^−/−Rdh8^−/− mice used in this study were homozygous for the Leu450 allele of Rpe65 as determined by a genotyping protocol published previously and free of Crb1/rd8 and rd/rd mutations Animals were housed either in the animal facility at the Case Western Reserve University School of Medicine, where they received a standard chow diet (LabDiet 5053) and were maintained under a 12-h light (˜300 lux) and 12-h dark cycle or at the Cole Eye Institute animal facility where they were. Mice were dark adapted overnight prior to all experiments. A cohort of Rdh8^−/−Abca4^−/− or C57BL/6J mice was used when they reached the age of 1 to 2 months, and both sexes were used evenly. All tested primary amines were suspended in 100 μl soybean oil with less than 10% (v/v) DMSO and were administered by oral gavage with a 22-gauge feeding needle. Experimental manipulations in the dark were done under dim red light transmitted through a Kodak No. 1 Safelight Filter (transmittance >560 nm).
# After dark adaptation for 24 h, Abca4^−/−Rdh8^−/− mice with pupils dilated by 1% tropicamide were exposed to fluorescent light (10,000 lux; 150 W spiral lamp; Commercial Electric) for 30 min in a white paper bucket (Papersmith) and then kept in the dark for an additional 3 days. Development of retinal degeneration was then determined by ultra-high-resolution spectral domain OCT (SD-OCT; Bioptigen) and ERG as previously described.
# To examine the ability of […] cause retinal damage in the absence of treatment with protective agents. Three days later retinas were imaged in vivo by optical coherence tomography, with preservation of outer nuclear layer thickness and light scattering properties serving as markers for retinal health. MB-001, which is capable of preventing light-induced retinal degeneration through both direct RPE65 inhibition as well as retinal sequestration served as a positive control for these experiments.
smiles,measurement,setting,value
"CC(C)c1cc(OCC2CCCCC2)cc(C(O)CCN)c1 (stereo not shown) [MB-005, 3-Amino-1-(3-(cyclohexylmethoxy)-5-isopropylphenyl)propan-1-ol]",retinal Schiff base adducts in eye extracts,[1],contained compounds matching the expected molecular weight of the respective Schiff base adducts
same,protective effect compared to the MB-001 control,Abca4−/−Rdh8−/− mice; 0.5 mg/mouse oral gavage 24 h before light,~50%
same,protection against light-induced retinal degeneration,Abca4−/−Rdh8−/− mice; 2 mg/mouse oral gavage 24 h before light,fully protected
same,protective effect compared to the MB-001 control,"Abca4−/−Rdh8−/− mice; doubling of 0.5 mg/mouse (1 mg/mouse), oral gavage 24 h before light",~80%

# From patent US12144788B2, “Visual cycle modulators” (CASE WESTERN RESERVE UNIVERSITY, priority 2017, dated 2024)
